The results in this text go back to patent US8846698B2, “Pyrrolo[2,3-d]pyrimidine tropomysin-related kinase inhibitors” (Pfizer Limited, priority 2011, dated 2014).

pIC50: −log10 of the molar value. Where two headings read alike, the source gives them in different places. Bounds are passed on as bounds.

One data set addresses TRKC (Homo sapiens (Human), UniProt Q16288). As to the kind of experiment: Cell based DiscoveRx PathHunter antagonist assay, TRKC cell line. The following applies: read-out: TrkC cell potency. The procedure:
After the Detection Reagent addition, plates are covered and incubated at room temperature for 60 minutes. […] Test compound data are expressed as percentage inhibition defined by HPE and ZPE values for each plate. Percentage inhibition in the presence of test compound is plotted against compound concentration on a log scale to determine an IC50 from the resultant sigmoid curve. Cell Based Assays were carried out using Cell lines from DiscoveRx utilising their PathHunter technology and reagents in an antagonist assay:
The assays are based upon DiscoveRx's proprietary Enzyme Fragment Complementation (EFC) technology. In the case of the TRK cell lines, the enzyme acceptor (EA) protein is fused to a SH2 protein and the TRK receptor of interest has been tagged with a Prolink tag.
Upon neurotrophin binding, the TRK receptor becomes phosphorylated, and the tagged SH2 protein binds.
This means that the IC50 is a good measure of affinity and should be unaffected by concentration neurotrophin stimulant.
Cryopreserved PathHunter cells are used from either in-house produced batches or bulk batches bought directly from DiscoveRx. Cryopreserved cells are resuscitated, spun 1000 rpm for 4 min to remove freezing media, and resuspended in MEM+0.5% horse serum (both Invitrogen) to 5e^5 cells/ml. The cells are then plated using a Multidrop into Greiner white tissue culture treated plates at 20 ul/well and incubated for 24 h at 37° C., 5% CO2, high humidity. On the day of the assay, the cell plates are allowed to cool to room temperature for 30 min prior to the assay.
Plates containing 1 ul of serially diluted compound, standard and HPE/ZPE are diluted 1/66 in assay buffer (PBS minus Ca^2+, minus Mg^2+ with 0.05% pluronic F127) using a Wellmate. […] The plates are left at room temperature for a further 2 hours before addition of 10 ul of the DiscoveRx PathHunter detection reagent (made up by adding 1 part Galacton Star, 5 parts Emerald II and 19 parts Cell Assay Buffer as per the manufacturer's instructions).
After reagent addition, plates are covered and incubated at room temperature for 60 minutes. Luminescence signal is read using an Envision. Test compound data are expressed as percentage inhibition defined by HPE and ZPE values for each plate. Percentage inhibition in the presence of test compound is plotted against compound concentration on a log scale to determine an […] from the resultant sigmoid curve.

Data set [1] deals with T1, TRKA (Homo sapiens (Human), UniProt P04629). As to the kind of experiment: Isolated TRK enzyme assay (HTRF KinEASE-TK), TRKA. The data set is classed as biochemical. The conditions noted are these: isolated TRKA enzyme; read-out: TrkA enzyme potency.
Target sequence in this assay (P04629 441-796): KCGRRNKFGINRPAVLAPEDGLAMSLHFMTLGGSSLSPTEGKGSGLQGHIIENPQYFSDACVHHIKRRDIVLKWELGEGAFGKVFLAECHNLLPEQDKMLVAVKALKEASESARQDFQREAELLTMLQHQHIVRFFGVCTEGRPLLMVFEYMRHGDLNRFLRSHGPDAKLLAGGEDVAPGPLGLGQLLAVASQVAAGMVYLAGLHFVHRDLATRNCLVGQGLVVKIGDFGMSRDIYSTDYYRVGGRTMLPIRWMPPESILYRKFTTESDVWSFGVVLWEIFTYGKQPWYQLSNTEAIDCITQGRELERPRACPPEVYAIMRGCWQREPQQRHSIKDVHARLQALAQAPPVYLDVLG
Data set [2] deals with T2, TRKB (Homo sapiens (Human), UniProt Q16620). As to the kind of experiment: cell-based. The conditions noted are these: TrkB cell potency, TRKB PathHunter cell line.
T2 sequence (Q16620 32-822 limits assumed): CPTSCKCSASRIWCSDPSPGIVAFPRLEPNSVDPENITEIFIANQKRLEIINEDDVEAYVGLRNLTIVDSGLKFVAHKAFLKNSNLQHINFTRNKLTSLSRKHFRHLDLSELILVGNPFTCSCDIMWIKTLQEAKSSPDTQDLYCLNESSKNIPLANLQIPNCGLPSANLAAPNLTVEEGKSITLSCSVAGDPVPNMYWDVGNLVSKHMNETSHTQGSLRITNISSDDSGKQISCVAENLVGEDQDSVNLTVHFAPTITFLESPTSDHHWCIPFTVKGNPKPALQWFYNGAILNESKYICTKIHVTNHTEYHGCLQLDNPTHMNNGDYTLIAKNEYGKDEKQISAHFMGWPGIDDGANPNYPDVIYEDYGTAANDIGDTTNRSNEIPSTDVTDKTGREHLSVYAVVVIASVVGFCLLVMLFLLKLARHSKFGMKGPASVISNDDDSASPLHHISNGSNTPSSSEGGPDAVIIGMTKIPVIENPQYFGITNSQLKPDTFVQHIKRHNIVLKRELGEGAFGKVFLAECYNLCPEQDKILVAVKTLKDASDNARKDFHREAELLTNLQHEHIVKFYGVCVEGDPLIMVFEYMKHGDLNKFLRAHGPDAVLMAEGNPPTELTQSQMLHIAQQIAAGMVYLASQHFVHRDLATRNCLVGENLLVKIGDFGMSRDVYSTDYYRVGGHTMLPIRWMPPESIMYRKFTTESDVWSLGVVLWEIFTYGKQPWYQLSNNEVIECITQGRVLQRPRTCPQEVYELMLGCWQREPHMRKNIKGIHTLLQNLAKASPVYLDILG
A further data set has as its target MDR1 (Homo sapiens (Human), UniProt P08183). Kind of data set: MDCK-MDR1 assay (in vitro brain penetration). The data set is classed as in vitro ADME. The following applies: human; for Papp A→B: MDCK-MDR1, A to B, read-out: MDCK MDR1 Papp AB; for Papp B→A: read-out: MDCK MDR1 Papp BA. The text has this: MDCK-MDR1: MDCK-MDR1 data were collected according to the method described in “Are MDCK Cells Transfected with the Human MDR1 Gene a Good Model of the Human Intestinal Mucosa?”
http://www.springerlink.com/content/qfhqlqbr4fnp3 khf/fulltext.pdf

The next data set addresses BCRP (ABCG2) (Homo sapiens (Human), UniProt Q9UNQ0). Kind of data set: MDCK-BCRP efflux assay (in vitro brain penetration). Type of data set: in vitro ADME. The following applies: dog; for Papp A→B: A to B, read-out: RRCK BCRP Papp AB; for Papp B→A: B to A, read-out: RRCK BCRP Papp BA.
Data set [3] deals with T2, TRKB. As to the kind of experiment: biochemical.
For data set [4], the target named is T1, TRKA. Kind of data set: Cell based DiscoveRx PathHunter antagonist assay, TRKA cell line. The following applies: read-out: TrkA cell potency.
Target sequence in this assay (P04629 33-796): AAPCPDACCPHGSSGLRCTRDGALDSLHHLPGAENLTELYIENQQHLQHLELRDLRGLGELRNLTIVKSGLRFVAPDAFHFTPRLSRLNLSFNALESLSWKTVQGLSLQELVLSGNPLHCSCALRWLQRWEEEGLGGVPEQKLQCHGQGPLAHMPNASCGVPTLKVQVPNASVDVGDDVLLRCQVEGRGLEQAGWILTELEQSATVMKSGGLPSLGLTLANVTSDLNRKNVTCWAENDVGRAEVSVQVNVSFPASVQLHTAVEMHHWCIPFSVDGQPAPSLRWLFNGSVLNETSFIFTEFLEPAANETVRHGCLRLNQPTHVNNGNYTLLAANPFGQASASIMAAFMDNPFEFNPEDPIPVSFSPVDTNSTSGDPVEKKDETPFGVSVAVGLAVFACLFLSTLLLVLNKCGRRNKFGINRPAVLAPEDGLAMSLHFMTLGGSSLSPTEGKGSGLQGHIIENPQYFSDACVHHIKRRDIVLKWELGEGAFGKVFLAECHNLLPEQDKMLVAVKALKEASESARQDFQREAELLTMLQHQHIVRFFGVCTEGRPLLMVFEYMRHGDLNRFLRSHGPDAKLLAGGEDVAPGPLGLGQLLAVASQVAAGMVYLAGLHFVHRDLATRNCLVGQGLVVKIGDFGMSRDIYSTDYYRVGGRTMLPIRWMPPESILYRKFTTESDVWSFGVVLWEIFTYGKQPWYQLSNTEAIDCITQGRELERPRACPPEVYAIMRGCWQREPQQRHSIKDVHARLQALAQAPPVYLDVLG

Chain of TRKC (Q16288 32-839): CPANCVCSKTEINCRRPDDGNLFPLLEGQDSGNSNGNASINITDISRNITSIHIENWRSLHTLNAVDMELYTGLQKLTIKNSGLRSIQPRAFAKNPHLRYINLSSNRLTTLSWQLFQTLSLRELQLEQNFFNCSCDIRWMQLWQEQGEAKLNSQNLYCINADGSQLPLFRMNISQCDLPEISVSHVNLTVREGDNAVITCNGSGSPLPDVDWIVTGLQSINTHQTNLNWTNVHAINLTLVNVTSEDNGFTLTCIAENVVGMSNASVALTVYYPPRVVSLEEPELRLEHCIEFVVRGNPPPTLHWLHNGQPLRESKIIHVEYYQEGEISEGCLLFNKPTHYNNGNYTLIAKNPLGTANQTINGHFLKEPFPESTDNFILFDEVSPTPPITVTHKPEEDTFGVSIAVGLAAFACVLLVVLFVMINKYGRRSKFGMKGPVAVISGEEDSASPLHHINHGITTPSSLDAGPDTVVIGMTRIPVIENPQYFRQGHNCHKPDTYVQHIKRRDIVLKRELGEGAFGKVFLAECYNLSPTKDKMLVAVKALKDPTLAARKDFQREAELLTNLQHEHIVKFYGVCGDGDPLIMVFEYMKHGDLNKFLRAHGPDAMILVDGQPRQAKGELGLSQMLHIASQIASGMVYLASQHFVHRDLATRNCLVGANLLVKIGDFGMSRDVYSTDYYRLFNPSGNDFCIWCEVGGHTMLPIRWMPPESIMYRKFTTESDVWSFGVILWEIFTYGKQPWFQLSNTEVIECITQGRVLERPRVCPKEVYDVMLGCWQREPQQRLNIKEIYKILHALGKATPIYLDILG
Chain of MDR1 (P08183 whole entry): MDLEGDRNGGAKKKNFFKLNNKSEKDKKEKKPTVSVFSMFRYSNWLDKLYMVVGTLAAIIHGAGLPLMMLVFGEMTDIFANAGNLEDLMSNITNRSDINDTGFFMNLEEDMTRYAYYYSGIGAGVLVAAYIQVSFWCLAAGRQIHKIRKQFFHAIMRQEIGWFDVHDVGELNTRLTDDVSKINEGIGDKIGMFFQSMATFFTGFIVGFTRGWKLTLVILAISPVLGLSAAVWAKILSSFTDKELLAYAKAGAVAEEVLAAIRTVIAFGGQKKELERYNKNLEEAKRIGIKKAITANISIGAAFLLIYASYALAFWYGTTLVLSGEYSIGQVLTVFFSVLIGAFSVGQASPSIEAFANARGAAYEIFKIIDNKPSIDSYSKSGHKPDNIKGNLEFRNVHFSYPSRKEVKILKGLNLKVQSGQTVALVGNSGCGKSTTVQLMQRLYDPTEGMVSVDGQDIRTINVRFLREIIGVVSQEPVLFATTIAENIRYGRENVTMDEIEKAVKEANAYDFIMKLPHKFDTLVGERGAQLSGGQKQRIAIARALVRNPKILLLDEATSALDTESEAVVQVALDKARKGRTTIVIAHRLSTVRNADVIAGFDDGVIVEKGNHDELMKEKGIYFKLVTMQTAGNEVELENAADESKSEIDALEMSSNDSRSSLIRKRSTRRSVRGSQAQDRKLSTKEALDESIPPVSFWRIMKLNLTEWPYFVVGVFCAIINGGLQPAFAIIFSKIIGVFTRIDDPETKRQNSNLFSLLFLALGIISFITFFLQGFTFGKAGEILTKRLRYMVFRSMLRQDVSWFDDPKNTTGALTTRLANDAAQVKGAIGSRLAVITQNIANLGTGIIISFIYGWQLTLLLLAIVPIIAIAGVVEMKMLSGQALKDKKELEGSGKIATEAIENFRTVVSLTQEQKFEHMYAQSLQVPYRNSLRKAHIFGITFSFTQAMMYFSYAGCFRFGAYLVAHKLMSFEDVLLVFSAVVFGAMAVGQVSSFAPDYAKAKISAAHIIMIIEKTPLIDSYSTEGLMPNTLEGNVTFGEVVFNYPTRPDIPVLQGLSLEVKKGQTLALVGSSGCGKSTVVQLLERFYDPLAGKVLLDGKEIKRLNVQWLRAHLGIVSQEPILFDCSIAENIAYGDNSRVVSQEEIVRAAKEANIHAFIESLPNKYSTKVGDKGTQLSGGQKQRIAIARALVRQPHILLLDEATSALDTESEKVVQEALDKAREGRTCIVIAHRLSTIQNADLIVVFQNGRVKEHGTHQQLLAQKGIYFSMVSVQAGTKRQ
Chain of BCRP (ABCG2) (Q9UNQ0 whole entry): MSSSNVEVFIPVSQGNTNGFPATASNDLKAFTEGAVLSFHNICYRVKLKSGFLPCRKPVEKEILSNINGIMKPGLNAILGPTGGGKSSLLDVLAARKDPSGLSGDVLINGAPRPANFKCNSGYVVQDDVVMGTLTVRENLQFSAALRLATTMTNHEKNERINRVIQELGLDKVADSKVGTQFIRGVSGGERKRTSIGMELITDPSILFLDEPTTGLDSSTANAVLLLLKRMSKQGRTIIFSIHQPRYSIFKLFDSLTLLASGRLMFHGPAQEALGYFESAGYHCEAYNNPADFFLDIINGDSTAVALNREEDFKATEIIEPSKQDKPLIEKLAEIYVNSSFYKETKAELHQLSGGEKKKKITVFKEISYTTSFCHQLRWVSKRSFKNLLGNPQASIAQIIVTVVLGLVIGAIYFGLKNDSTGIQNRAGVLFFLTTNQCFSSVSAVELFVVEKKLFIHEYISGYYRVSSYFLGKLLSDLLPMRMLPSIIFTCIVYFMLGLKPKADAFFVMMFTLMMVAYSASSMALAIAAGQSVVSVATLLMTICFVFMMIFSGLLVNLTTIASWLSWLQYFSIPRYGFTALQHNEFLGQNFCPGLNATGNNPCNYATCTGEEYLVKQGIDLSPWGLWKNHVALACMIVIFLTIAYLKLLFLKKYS

For the compound `CC(C)(C)n1cc(C(=O)c2cncc(NC(=O)Cn3cc(C4CC4)nn3)c2)c2cncnc21` [Example 4, N-{5-[(7-tert-butyl-7H-pyrrolo[2,3-d]pyrimidin-5-yl)carbonyl]pyridin-3-yl}-2-(4-cyclopropyl-1H-1,2,3-triazol-1-yl)acetamide], the pIC50 is 8.36 on TRKC; 8.41 on TRKA [1]; 8.19 on TRKB [2]; 6.79 against TRKB [3] (TrkB enzyme potency); 8.24 at TRKA [4]. The Papp A→B on MDR1 is less than 1 ×10⁻⁶ cm/s; at BCRP (ABCG2), 12 ×10⁻⁶ cm/s. Further, the Papp B→A was 13 ×10⁻⁶ cm/s on MDR1 (MDCK-MDR1, B to A) and 39 ×10⁻⁶ cm/s at BCRP (ABCG2).
`C[C@@H](CO)n1cc(C(=O)c2cncc(NC(=O)Cc3ccc(C(F)(F)F)cc3)c2)c2cncnc21` [Example 9, N-[5-({7-[(1S)-2-Hydroxy-1-methylethyl]-7H-pyrrolo[2,3-d]pyrimidin-5-yl}carbonyl)pyridin-3-yl]-2-[4-(trifluoromethyl)phenyl]acetamide]: the pIC50 on TRKC is 8.23; on TRKA [1], 8.43; at TRKB [2], 8.18; at TRKB [3] (isolated TRKB enzyme, read-out: TrkB enzyme potency) it was 7.03; at TRKA [4], 7.89. Also, the Papp B→A at MDR1 (MDCK-MDR1, MDCK-MDR1, B to A) turned out to be 20 ×10⁻⁶ cm/s; on BCRP (ABCG2), 43 ×10⁻⁶ cm/s. Moreover, the results for the Papp A→B at MDR1 and on BCRP (ABCG2) were less than 1 ×10⁻⁶ cm/s and 9 ×10⁻⁶ cm/s, respectively.
For the compound `Cc1cc(C(F)(F)F)nn1CC(=O)Nc1cncc(C(=O)c2cn(C(C)(C)CO)c3ncncc23)c1` [Example 26, N-(5-{[7-(2-hydroxy-1,1-dimethylethyl)-7H-pyrrolo[2,3-d]pyrimidin-5-yl]carbonyl}pyridin-3-yl)-2-[5-methyl-3-(trifluoromethyl)-1H-pyrazol-1-yl]acetamide], the pIC50 on TRKC is 8.07; at TRKA [1] it was 8.46; at TRKB [2], 8.23; against TRKB [3] (TrkB enzyme potency) it was 7.52; on TRKA [4], 7.85. Besides, the figures for the Papp A→B at MDR1 and on BCRP (ABCG2) were less than 1 ×10⁻⁶ cm/s and 7.5 ×10⁻⁶ cm/s, respectively. Further, the Papp B→A at MDR1 (MDCK-MDR1, B to A) was found to be 16 ×10⁻⁶ cm/s; at BCRP (ABCG2), 32 ×10⁻⁶ cm/s.
Take `CC(C)(CO)n1cc(C(=O)c2cncc(NC(=O)Cc3ccc(Cl)cn3)c2)c2cnc(N)nc21` [Example 46, N-(5-{[2-Amino-7-(2-hydroxy-1,1-dimethylethyl)-7H-pyrrolo[2,3-d]pyrimidin-5-yl]carbonyl}pyridin-3-yl)-2-(5-chloropyridin-2-yl)acetamide]: the Papp B→A on MDR1 (MDCK-MDR1, MDCK-MDR1, B to A) amounted to 18 ×10⁻⁶ cm/s; on BCRP (ABCG2), 31 ×10⁻⁶ cm/s. For the same compound, the Papp A→B was less than 1 ×10⁻⁶ cm/s at MDR1 and 7 ×10⁻⁶ cm/s at BCRP (ABCG2).
